From patent publication EP0509180A1, “Use of GABA-T inhibitors for the treatment of schizophrenia and phencyclidine intoxication” (MERRELL DOW PHARMACEUTICALS INC., priority 1991, dated 1992)

Key:
[1] = tested on: male CDl albino mice; assay: Spontaneous locomotor activity of mice (actimeter, Event-Counter); format: in vivo
Description: (§1) In determining efficacy for the above-stated uses of gamma-aminobutyric acid transaminase inhibitors standard laboratory models are employed wherein effects on phencyclidine-induced locomotor activity are determined. One such test employed is: male CDl albino mice (weighing 30-40 grams) (Charles River, St. Aubin-les-Elbeuf, France) kept under standardized conditions (22°C, 60% relative humidity; 12 hours light - 12 hours dark cycle; water and standard diet ad libitum). Locomotor activity is determined using the Event-Counter of Columbus Instr. Corp. (Columbus, Ohio). The animals (six per cage) are brought into a room which is equipped with an actimeter, and allowed to adapt to the new environment for several hours. Phencyclidine is given 5 hours after administration of the GABA-T inhibitors. The dose of phencyclidine used is 5 µg/g in 10 µl of physiological saline, i.p. Immediately after phencyclidine administration (or of the same volume of physiological saline in the case of controls), the animals are placed individually into standard plastic cages (23 cm × 17 cm), and the actimeter is set into action. Total time of observation: 35 minutes. The scores of 5 minute intervals are integrated and stored by the computer.
(§2) In order to test "direct" effects of the drugs, locomotor activity was determined, starting 10 minutes after intraperitoneal administration of 150 mg/kg (4S)-allenylGABA, and 400 mg/kg vigabatrin, respectively.
(§3) The locomotor behavior of mice with elevated brain GABA concentrations was tested as follows: vigabatrin and (4S)-allenylGABA were administered intraperitoneally in a dose-range from 100-800 mg/kg and 50-300 mg/kg, respectively. Within this dose range whole brain GABA concentrations, as observed 5 hours post injection were between 2.5 and 10 µmol/g.

[2] = tested on: male CDl albino mice; assay: Phencyclidine (PCP)-induced locomotor activity of mice (actimeter, Event-Counter); format: in vivo; settings: for direct effect on phencyclidine-induced locomotor behavior (in words): 10 minutes (15 minutes) after i.p. 150 mg/kg (4S)-allenylGABA or 400 mg/kg vigabatrin (Table I)
Description: as §1, §2, §3

[3] = tested on: whole brain GABA; assay: Whole brain GABA concentrations after GABA-T inhibitor administration; format: in vivo, mice; settings: 15 minutes after administration of optimum doses

SMILES: C=C=C[C@@H](N)CCC(=O)O [(4S)-allenylGABA, (S)-4-amino-5,6-heptadienoic acid]
- Spontaneous locomotor activity, Mean scores ± S.D. ([1]; 50 mg/kg i.p., 5 h pretreatment): 306.244 ( 6)
- Spontaneous locomotor activity, Mean scores ± S.D. ([1]; 100 mg/kg i.p., 5 h pretreatment): 406.221 ( 6)
- Spontaneous locomotor activity, Mean scores ± S.D. ([1]; 150 mg/kg i.p., 5 h pretreatment): 315.304 ( 6)
- Spontaneous locomotor activity, Mean scores ± S.D. ([1]; 150 mg/kg i.p., given 10 minutes before physiol. saline): 688 ± 308 ( 6)
- Spontaneous locomotor activity, Mean scores ± S.D. ([1]; 300 mg/kg i.p., 5 h pretreatment): 445.420 ( 6)
- sedation / motor activity at very high dose ([1]; 600 mg/kg (not shown)): sedated
- effect on spontaneous locomotor activity (in words) ([1]; dose range from 50 to 300 mg/kg, 5 h pretreatment (Table III)): did not affect
- PCP-induced locomotor activity, Mean scores ± S.D. ([2]; 150 mg/kg i.p., given 10 minutes before phencyclidine (5 mg/kg)): 2680 ± 1040 (11)
- direct effect on phencyclidine-induced locomotor behavior (in words) [2]: absence of an effect
- minimal effective dose ([2]; Mus musculus, 5 h, read-out: dose giving a statistically significant difference to mice receiving only phencyclidine): ≥ 100 mg/kg
- phencyclidine-induced hypermotility reduced by ([2]; highest dose given (300 mg/kg) i.p. 5 h before phencyclidine): 75%
- brain GABA concentrations [3]: below 3 µmol/g

SMILES: C=C[C@H](N)CCC(=O)O [Vigabatrin, (R)S-4-aminohex-5-enoic acid]
- Spontaneous locomotor activity, Mean scores ± S.D. ([1]; 200 mg/kg i.p., 5 h pretreatment): 505 ± 344 (6)
- Spontaneous locomotor activity, Mean scores ± S.D. ([1]; 400 mg/kg i.p., 5 h pretreatment): 471 ± 306 (12)
- Spontaneous locomotor activity, Mean scores ± S.D. ([1]; 400 mg/kg i.p., given 10 minutes before physiol. saline, 35 minutes observation): 528 ± 239 ( 6)
- Spontaneous locomotor activity, Mean scores ± S.D. ([1]; 600 mg/kg i.p., 5 h pretreatment): 361 ± 139 (6)
- Spontaneous locomotor activity, Mean scores ± S.D. ([1]; 700 mg/kg i.p., 5 h pretreatment): 441 ± 298 (6)
- Spontaneous locomotor activity, Mean scores ± S.D. ([1]; 800 mg/kg i.p., 5 h pretreatment): 435 ± 275 (6)
- effect on spontaneous locomotor activity (in words) ([1]; 100-800 mg/kg i.p., 5 h pretreatment (Table II)): not significantly affected
- PCP-induced locomotor activity, Mean scores ± S.D. ([2]; 100 mg/kg i.p. 5 h before phencyclidine (5 mg/kg)): 2360 ± 1100 (12)
- PCP-induced locomotor activity, Mean scores ± S.D. ([2]; 200 mg/kg i.p. 5 h before phencyclidine (5 mg/kg)): 1970 ± 730 (12)
- locomotor activity, lowest value, as % of that of phencyclidine-treated controls ([2]; 400 mg/kg i.p. 5 h before phencyclidine): 55%
- PCP-induced locomotor activity, Mean scores ± S.D. ([2]; 400 mg/kg i.p. 5 h before phencyclidine (5 mg/kg)): 1690 ± 1385 (12)
- PCP-induced locomotor activity, Mean scores ± S.D. ([2]; 400 mg/kg i.p., given 10 minutes before phencyclidine (5 mg/kg)): 2460 ± 1220 (11)
- PCP-induced locomotor activity, Mean scores ± S.D. ([2]; 600 mg/kg i.p. 5 h before phencyclidine (5 mg/kg)): 2180 ± 410 (12)
- PCP-induced locomotor activity, Mean scores ± S.D. ([2]; 700 mg/kg i.p. 5 h before phencyclidine (5 mg/kg)): 1780 ± 1080 (12)
- PCP-induced locomotor activity, Mean scores ± S.D. ([2]; 800 mg/kg i.p. 5 h before phencyclidine (5 mg/kg)): 2100 ± 1780 (12)
- direct effect on phencyclidine-induced locomotor behavior (in words) [2]: absence of an effect
- brain GABA concentrations [3]: below 3 µmol/g
